Here are results for one compound from PMC6934184, “Selective DNA-PKcs inhibition extends the therapeutic index of localized radiotherapy and chemotherapy” (The Journal of Clinical Investigation, 2019).

The target in this test is T1, RPS6KA3 (RSK2) (Homo sapiens, UniProt P51812).
T1 construct: purchased Thermo Fisher Scientific (Life Technologies) SelectScreen
In words: SelectScreen Z'LYTE. Format: biochemical. In a few lines:
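NU5455 was profiled across the SelectScreen Broad panel of kinase activity and binding assays. Z'LYTE reactions such as CSF1R ran at apparent Km ATP, while the Adapta CAMK1 assay used ATP listed as 10. Values are given as percent.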

T1 sequence (P51812 whole entry): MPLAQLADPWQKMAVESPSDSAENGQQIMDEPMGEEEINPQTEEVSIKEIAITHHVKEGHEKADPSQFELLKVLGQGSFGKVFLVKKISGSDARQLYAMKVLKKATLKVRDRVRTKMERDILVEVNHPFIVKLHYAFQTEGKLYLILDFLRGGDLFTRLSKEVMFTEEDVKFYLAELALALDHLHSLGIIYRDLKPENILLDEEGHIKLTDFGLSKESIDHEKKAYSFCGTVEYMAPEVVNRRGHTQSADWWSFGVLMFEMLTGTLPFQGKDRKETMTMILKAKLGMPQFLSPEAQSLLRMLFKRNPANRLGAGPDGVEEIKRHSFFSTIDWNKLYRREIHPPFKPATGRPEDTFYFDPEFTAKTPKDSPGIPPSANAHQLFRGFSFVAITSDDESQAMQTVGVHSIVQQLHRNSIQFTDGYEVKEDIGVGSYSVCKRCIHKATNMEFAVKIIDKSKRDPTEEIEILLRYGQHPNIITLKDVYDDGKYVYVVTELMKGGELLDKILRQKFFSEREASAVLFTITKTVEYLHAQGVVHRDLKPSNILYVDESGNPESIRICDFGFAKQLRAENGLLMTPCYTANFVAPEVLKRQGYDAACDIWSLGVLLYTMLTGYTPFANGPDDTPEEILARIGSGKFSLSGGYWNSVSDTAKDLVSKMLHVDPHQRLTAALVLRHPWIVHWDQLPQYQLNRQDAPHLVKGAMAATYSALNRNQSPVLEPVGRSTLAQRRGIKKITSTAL

What is called inhibition is the relative decrease from the control value, in per cent. As for `CN(C(=O)CN1CCOCC1)c1ccc2sc3c(-c4cccc5c(=O)cc(N6CC7CCC(C6)O7)oc45)cccc3c2c1` [NU5455], the inhibition at 1 µM came to 2.1%.
